Target: T1, HER-2 (Homo sapiens, UniProt P04626)
T1 construct: endogenous in cells; host or cells: Calu-3 (human non-small-cell lung cancer, ATCC HTB-55)
Experiment: Inhibition of HER-2 phosphorylation in Calu-3 tumor cell line
Type: cell-based
Conditions: compound concentration 1 μM; Calu-3 cells, 16 h incubation; pY 1248 in HER-2; relative to DMSO control; read-out: Percent inhibition of HER-2-phosphorylation
Experimental: Inhibition of HER-2 Phosphorylation in Calu-3 Tumor Cell Line
2×10^5 Calu-3 cells (Non-Small-Cell Lung Cancer cells, ATTC HTB-55) per well were plated in a 12-well plate. After 4 days cells were starved for 16 h in Dulbecco's Modified Eagle Medium (DMEM)/0.5% Fetal Calf Serum (FCS)/1% Glutamine. During this 16 h period cells were incubated with a solution of the test compound in dimethylsulfoxide (DMSO), so that the final concentration of the compound is 1 μM and the final volume of DMSO is 0.5%. […] Cell lysates were analyzed on a Sodium Dodecyl Sulfate Polyacrylamide Gel Electrophoresis (SDS PAGE) and after transfer to a nitrocellulose membrane detected with an antibody specifically recognizing the pY 1248 in HER-2 (phosphorylated tyrosine residue 1248 of human […]). After incubation with an anti rabbit antibody coupled to POD (peroxidase available from Biorad, Munich, Germany) signals were detected by chemiluminescence (ECL, Amersham). Inhibition of HER-2 phosphorylation is calculated as a percentage of the control, which is treated with DMSO only. The percentage of the inhibition is calculated according to the following formula: Inhibition in %=100−(Phosphorylated-HER2-Signal of Test Sample* 100/Phosphorylated-HER2-Signal DMSO-control).

T1 sequence (P04626 23-1255): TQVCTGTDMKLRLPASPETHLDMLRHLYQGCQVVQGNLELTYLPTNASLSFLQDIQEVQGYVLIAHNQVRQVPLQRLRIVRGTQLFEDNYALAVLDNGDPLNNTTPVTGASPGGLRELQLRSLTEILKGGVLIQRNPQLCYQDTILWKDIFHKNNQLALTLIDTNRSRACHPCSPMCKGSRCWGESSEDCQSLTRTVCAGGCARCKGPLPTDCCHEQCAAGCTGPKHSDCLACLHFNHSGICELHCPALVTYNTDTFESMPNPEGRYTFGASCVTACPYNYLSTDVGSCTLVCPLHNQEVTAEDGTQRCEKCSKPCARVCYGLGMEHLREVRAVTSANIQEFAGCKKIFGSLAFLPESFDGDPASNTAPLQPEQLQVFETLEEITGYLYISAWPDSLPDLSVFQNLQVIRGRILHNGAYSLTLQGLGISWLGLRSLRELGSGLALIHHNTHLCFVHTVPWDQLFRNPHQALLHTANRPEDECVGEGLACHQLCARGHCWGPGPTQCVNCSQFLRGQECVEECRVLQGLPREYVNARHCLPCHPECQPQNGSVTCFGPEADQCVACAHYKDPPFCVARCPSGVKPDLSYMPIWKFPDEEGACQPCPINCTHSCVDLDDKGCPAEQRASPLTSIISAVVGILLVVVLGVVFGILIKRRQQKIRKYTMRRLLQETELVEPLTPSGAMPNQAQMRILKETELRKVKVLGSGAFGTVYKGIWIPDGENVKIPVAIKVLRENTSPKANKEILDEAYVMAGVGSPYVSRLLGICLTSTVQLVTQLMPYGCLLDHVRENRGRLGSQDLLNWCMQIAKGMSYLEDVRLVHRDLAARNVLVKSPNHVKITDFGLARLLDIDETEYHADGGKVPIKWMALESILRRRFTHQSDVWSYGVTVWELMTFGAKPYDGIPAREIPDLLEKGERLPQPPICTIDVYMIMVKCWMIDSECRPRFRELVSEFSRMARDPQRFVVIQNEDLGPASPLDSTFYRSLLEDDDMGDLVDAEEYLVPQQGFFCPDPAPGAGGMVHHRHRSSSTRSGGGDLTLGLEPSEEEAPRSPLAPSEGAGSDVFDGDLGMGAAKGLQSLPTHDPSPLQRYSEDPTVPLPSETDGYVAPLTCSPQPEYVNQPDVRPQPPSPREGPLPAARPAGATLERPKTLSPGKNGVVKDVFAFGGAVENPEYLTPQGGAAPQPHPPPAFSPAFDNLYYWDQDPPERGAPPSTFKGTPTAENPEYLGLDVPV

SMILES | inhibition at 1 µM [%]
Fc1cc(Cl)ccc1/C=C/c1nc(COc2ccc(COCCn3ccnn3)cc2)co1 [Example 1, 1-[2-(4-{2-[2-(E)-(4-Chloro-2-fluoro-phenyl)-vinyl]-oxazol-4-ylmethoxy}-benzyloxy)-ethyl]-1H-[1,2,3]triazole] | 65 to 80
Clc1ccc(/C=C/c2nc(COc3ccc(COCCn4ccnn4)cc3)co2)cc1 [Example 2, 1-[2-(4-{2-[2-(E)-(4-Chloro-phenyl)-vinyl]-oxazol-4-ylmethoxy}-benzyloxy)-ethyl]-1H-[1,2,3]triazole] | > 80
